# Columns and labels:
# [1] = molecular target: T1, S100A4 (Homo sapiens, UniProt P26447); assay: Competition pull-down with native ligand NMIIA (1893–1923); format: binding; conditions: H14 library; competitor peptide 200 µM; read-out: Surface mapping KD (apparent), competition
# T1 construct: made in house; host or cells: Escherichia coli BL21(DE3)
# [2] = molecular target: T2, CaM (Bos taurus, UniProt P62157); assay: Pull-down assay with immobilized protein and LSM libraries; format: binding, bovine; conditions: H14 library; 1:2 stoichiometry assumed; read-out: Surface mapping KD (apparent)
# T2 construct: made in house; host or cells: E. coli BL21 (DE3)
# Summary of the method: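 His-tagged protein immobilized on Co-NTA resin, equilibrated 30 min at room temperature with LSM sublibraries (64 members, […]), equimolar protein to total probe. CaM buffer: 20 mM HEPES pH 7.4, 150 mM NaCl, 5 mM CaCl2. Bound fractions from HPLC-MS loss of unbound probe versus protein-free resin control; Kd derived.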
# [3] = molecular target: T3, S100B (Homo sapiens, UniProt P04271); assay: Competition pull-down with native ligand RSK1 (689–735); format: binding; conditions: H14 library; competitor peptide 200 µM; read-out: Surface mapping KD (apparent), competition
# T3 construct: made in house; host or cells: Escherichia coli BL21(DE3)
# T3 sequence (P04271 1-92): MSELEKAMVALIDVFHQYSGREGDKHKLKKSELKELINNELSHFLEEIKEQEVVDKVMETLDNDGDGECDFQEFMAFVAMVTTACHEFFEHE
# [4] = molecular target: T3, S100B; assay: Pull-down assay with immobilized protein and LSM libraries; format: binding; conditions: for Kd: H14 library, 1:1 binding assumed, read-out: Surface mapping KD (apparent); for Affinity class of probe (high, medium, low) in pull-down: H14 probes selected for validation
# Summary of the method: (§1)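 Buffers were HEPES pH 7.4 with 150 mM NaCl, plus 1 mM TCEP and 1 mM CaCl2 (50 mM HEPES) for S100A4 and S100B, 1 mM TCEP for Gal-1, and no additive for RecQ-WH. Immobilized protein at 64 µM was equilibrated 30 min with the LSM sublibrary, and unbound probes were measured by LC-MS.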
# [5] = molecular target: T4, Gal-1 (Homo sapiens, UniProt P09382); assay: as above; format: binding; conditions: H14 library; 1:1 binding assumed; read-out: Surface mapping KD (apparent)
# T4 construct: made in house; host or cells: E. coli BL21(DE3)
# T4 sequence (P09382 whole entry): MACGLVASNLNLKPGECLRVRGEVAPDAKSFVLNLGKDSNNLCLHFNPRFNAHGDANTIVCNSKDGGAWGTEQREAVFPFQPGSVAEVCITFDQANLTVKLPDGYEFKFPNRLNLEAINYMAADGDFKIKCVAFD
# Summary of the method: (§2)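 His-tagged protein immobilized on Co-NTA resin (64 µM) in 20 mM HEPES pH 7.4, 150 mM NaCl, equilibrated 30 min at room temperature with foldamer LSM sublibraries at equimolar total concentration. Unbound fractions quantified by HPLC-MS versus protein-free resin control; apparent KD assumes 1:1 binding.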
# [6] = molecular target: T1, S100A4; assay: as above; format: binding; conditions: for Kd: H14 library, 1:1 binding assumed, read-out: Surface mapping KD (apparent); for Affinity class of probe (high, medium, low) in pull-down: H14 probes selected for validation
# Summary of the method: as §1
# [7] = molecular target: T5, RecQ-WH (Escherichia coli, UniProt P15043); assay: Competition pull-down with native ligand SSB-Ct8; format: binding, E. coli; conditions: H14 library; competitor peptide 200 µM; read-out: Surface mapping KD (apparent), competition
# T5 construct: coding for residues 408– 523 of E. coli RecQ; made in house; host or cells: E. coli BL21(DE3)
# T5 sequence (P15043 408-523): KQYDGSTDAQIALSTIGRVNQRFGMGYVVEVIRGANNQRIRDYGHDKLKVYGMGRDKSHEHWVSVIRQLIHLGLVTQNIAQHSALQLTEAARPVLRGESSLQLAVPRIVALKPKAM
# [8] = molecular target: T5, RecQ-WH; assay: Pull-down assay with immobilized protein and LSM libraries; set-up: species or system E. coli; conditions: H14 library; 1:1 binding assumed; read-out: Surface mapping KD (apparent)
# Summary of the method: as §2
# [9] = molecular target: T2, CaM; assay: Competition pull-down with native ligand TRPV1-Ct15; format: binding, bovine; conditions: H14 library; competitor peptide 200 µM; read-out: Surface mapping KD (apparent), competition
# [10] = molecular target: T4, Gal-1; assay: Competition pull-down with lactose; format: binding; conditions: H14 library; lactose 10 mM; read-out: Surface mapping KD (apparent), competition
# Summary of the method: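 His6-tagged proteins immobilized on Co-NTA resin at 64 µM final with 64-member LSM foldamer sublibraries (1 M each, as printed) in pH 7.4 HEPES/NaCl buffers (Ca2+/TCEP per target), 30 min RT; competitor peptides 200 µM final, lactose 10 mM for Gal-1. Bound fractions from LC-MS loss vs protein-free resin; KD assuming 1:1 binding.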
# T1 sequence (P26447 whole entry): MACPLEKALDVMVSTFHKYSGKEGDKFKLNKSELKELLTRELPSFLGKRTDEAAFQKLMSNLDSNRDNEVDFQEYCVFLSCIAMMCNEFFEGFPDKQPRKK
SMILES,Kd [1] [µM],Kd [2] [µM],Kd [3] [µM],Kd [4] [µM],Kd [5] [µM],Kd [6] [µM],Kd [7] [µM],Kd [8] [µM],Kd [9] [µM],"Affinity class of probe (high, medium, low) in pull-down [4]","Affinity class of probe (high, medium, low) in pull-down [6]",Kd [10] [µM]
CC(C)[C@@H](CC(=O)N[C@H]1CCCC[C@@H]1C(N)=O)NC(=O)[C@H]1CCCC[C@@H]1NC(=O)[C@H]1CCCC[C@@H]1NC(=O)C[C@@H](NC(=O)[C@H]1CCCC[C@@H]1N)C(C)C [H14 VV],356,7,198,73,244,3,–,–,–,–,–,–
CC(C)C[C@@H](CC(=O)N[C@H]1CCCC[C@@H]1C(N)=O)NC(=O)[C@H]1CCCC[C@@H]1NC(=O)[C@H]1CCCC[C@@H]1NC(=O)C[C@H](Cc1c[nH]c2ccccc12)NC(=O)[C@H]1CCCC[C@@H]1N [H14 WL],255,1,123,12,71,10,142,68,55,high,high,105
CC(C)[C@@H](CC(=O)N[C@H]1CCCC[C@@H]1C(=O)N[C@H]1CCCC[C@@H]1C(=O)N[C@H](CC(=O)N[C@H]1CCCC[C@@H]1C(N)=O)Cc1ccccc1)NC(=O)[C@H]1CCCC[C@@H]1N [H14 VF],474,5,91,20,93,3,–,347,239,–,–,193
CC(C)C[C@@H](CC(=O)N[C@H]1CCCC[C@@H]1C(N)=O)NC(=O)[C@H]1CCCC[C@@H]1NC(=O)[C@H]1CCCC[C@@H]1NC(=O)C[C@H](Cc1ccccc1)NC(=O)[C@H]1CCCC[C@@H]1N [H14 FL],280,0.6,202,21,102,9,266,79,121,–,–,164
CC[C@H](C)[C@@H](CC(=O)N[C@H]1CCCC[C@@H]1C(N)=O)NC(=O)[C@H]1CCCC[C@@H]1NC(=O)[C@H]1CCCC[C@@H]1NC(=O)C[C@H](Cc1c[nH]c2ccccc12)NC(=O)[C@H]1CCCC[C@@H]1N [H14 WI],255,1,123,12,71,10,142,68,55,–,–,105
CC(C)C[C@@H](CC(=O)N[C@H]1CCCC[C@@H]1C(=O)N[C@H]1CCCC[C@@H]1C(=O)N[C@H](CC(=O)N[C@H]1CCCC[C@@H]1C(N)=O)C(C)C)NC(=O)[C@H]1CCCC[C@@H]1N [H14 LV],192,3,213,56,68,5,–,177,–,–,–,128
CC[C@H](C)[C@@H](CC(=O)N[C@H]1CCCC[C@@H]1C(=O)N[C@H]1CCCC[C@@H]1C(=O)N[C@@H](CCSC)CC(=O)N[C@H]1CCCC[C@@H]1C(N)=O)NC(=O)[C@H]1CCCC[C@@H]1N [H14 IM],217,11,163,47,238,3,–,340,–,–,–,–
CC(C)C[C@@H](CC(=O)N[C@H]1CCCC[C@@H]1C(N)=O)NC(=O)[C@H]1CCCC[C@@H]1NC(=O)[C@H]1CCCC[C@@H]1NC(=O)C[C@@H](NC(=O)[C@H]1CCCC[C@@H]1N)C(C)C [H14 VL],246,13,180,43,66,3,–,366,–,medium,high,220
CSCC[C@@H](CC(=O)N[C@H]1CCCC[C@@H]1C(=O)N[C@H]1CCCC[C@@H]1C(=O)N[C@H](CC(=O)N[C@H]1CCCC[C@@H]1C(N)=O)CC(C)C)NC(=O)[C@H]1CCCC[C@@H]1N [H14 ML],447,3,269,62,145,11,–,226,435,–,–,235
CC(C)[C@@H](CC(=O)N[C@H]1CCCC[C@@H]1C(N)=O)NC(=O)[C@H]1CCCC[C@@H]1NC(=O)[C@H]1CCCC[C@@H]1NC(=O)C[C@H](Cc1ccccc1)NC(=O)[C@H]1CCCC[C@@H]1N [H14 FV],376,1.2,253,44,199,12,–,129,141,–,–,323
CSCC[C@@H](CC(=O)N[C@H]1CCCC[C@@H]1C(N)=O)NC(=O)[C@H]1CCCC[C@@H]1NC(=O)[C@H]1CCCC[C@@H]1NC(=O)C[C@H](CC(C)C)NC(=O)[C@H]1CCCC[C@@H]1N [H14 LM],318,14,163,67,138,4,–,233,468,–,–,334
CC[C@H](C)[C@@H](CC(=O)N[C@H]1CCCC[C@@H]1C(=O)N[C@H]1CCCC[C@@H]1C(=O)N[C@H](CC(=O)N[C@H]1CCCC[C@@H]1C(N)=O)C(C)C)NC(=O)[C@H]1CCCC[C@@H]1N [H14 IV],187,3,178,43,57,3,–,366,–,–,–,114
CC[C@H](C)[C@@H](CC(=O)N[C@H]1CCCC[C@@H]1C(N)=O)NC(=O)[C@H]1CCCC[C@@H]1NC(=O)[C@H]1CCCC[C@@H]1NC(=O)C[C@H](CCSC)NC(=O)[C@H]1CCCC[C@@H]1N [H14 MI],447,3,269,62,145,11,–,226,435,–,–,235
CC[C@H](C)[C@@H](CC(=O)N[C@H]1CCCC[C@@H]1C(N)=O)NC(=O)[C@H]1CCCC[C@@H]1NC(=O)[C@H]1CCCC[C@@H]1NC(=O)C[C@@H](NC(=O)[C@H]1CCCC[C@@H]1N)C(C)C [H14 VI],246,13,181,43,105,3,–,366,–,–,–,293

# — publication PMC8162404, “Proteomimetic surface fragments distinguish targets by function” (Chemical Science, 2020)
